Experimental data: the RepoRT retention time repository

test: Agilent ZORBAX 300 SB-C18, 150 × 1 mm, 3.5 µm; A: water + 0.01% heptafluorobutyric acid; B: acetonitrile + 0.01% heptafluorobutyric acid; gradient (min/%B) 0/0 100/90; conditions: stereoisomer not certain

| SMILES | LC retention time |
| --- | --- |
| O=CC1C(=O)Nc2ccccc21 (centres undefined) | 8.65 min |
| Nc1ccc2ncc(=O)[nH]c2c1 | 6.59 min |
| C=CCC1(CC=C)CCCCN1 | 8.76 min |
| Cc1ccc(-c2ccc3ccccc3n2)cc1 | 13.4 min |
| c1ccc(CN(CC2=NCCN2)c2ccccc2)cc1 | 10.1 min |
| Nc1cccc(CCC(=O)O)c1 | 7.06 min |
| Cc1ccc(C(=O)C=Cc2ccco2)cc1 | 15.1 min |
| Nc1c2ccccc2nc2ccccc12 | 8.38 min |
| Cc1cc(C)nc(N=C(N)Nc2cccc3ccccc23)n1 | 10.5 min |
| CC(C)NC(=O)c1ccc2ccccc2n1 | 13.1 min |
| O=C(C1c2ccccc2Oc2ccccc21)N1CCCc2ccccc21 | 17.8 min |
| Cc1ccnc2c1ccc1cccnc12 | 8.43 min |
| Cc1cc(C(c2cc(C)c(N)c(C)c2)c2ccco2)cc(C)c1N | 12.1 min |
| CC(C)c1ccccc1NC(=O)CN | 8.61 min |
| Cc1ccc(-n2c(C)cc(C=CC(=O)O)c2C)cc1 | 14.4 min |
| O=C1C(=Cc2cccs2)CCCC1=Cc1cccs1 | 18.5 min |
| CC(C)=CCN1CC2(C)c3cc(O)ccc3CC1C2C (centres undefined) | 10.3 min |
| Cc1ccc2c(c1)C1CN(C)CCC1N2C(=O)CN1CCCCC1 (centres undefined) | 7.91 min |
| O=C1C(=Cc2ccco2)C(=O)c2ccccc21 | 14 min |
| COC(=O)Cn1c(=O)c2ccccc2n(CC(=O)OC)c1=O | 10.7 min |
| Cc1ccc2[nH]c3nc4ccccc4nc3c2c1 | 13.2 min |
| c1ccc(-c2cc3ccccc3[nH]2)cc1 | 15.8 min |
| CC(=O)C=Cc1ccccc1 | 11.8 min |
| CCCCCCCCCCCCCCCCCCNC | 19 min |
| C#CC(C)(CC)NC(=O)CCc1ccccc1 (centres undefined) | 13 min |
| O=S(=O)(O)CCNC1CCCCC1 | 5.78 min |

| SMILES | LC retention time |
| --- | --- |
| NCCN | 5.99 min |
| Nc1ccc(NC(=O)Nc2ccc(N)cc2)cc1 | 7.24 min |
| CCn1c2ccccc2c2cc(CNC3CC3)ccc21 | 10.8 min |
| COc1ccc(Oc2ccc(-n3c(C)ccc3C)cc2)cc1 | 18.9 min |
| O=C(CC1COc2ccccc2O1)N1CCOCC1 (centres undefined) | 10.5 min |
| S=c1nc(C2CCCCC2)[nH][nH]1 | 8.76 min |
| O=C(N=CNC(=O)c1cccnc1)c1cccnc1 | 7.45 min |
| COc1ccc(-c2cc(=O)c3cc(C)cc(C)c3o2)cc1OC | 15.2 min |
| Cc1ccc(-c2nn(CC(=O)Nc3cccnc3)c(=O)c3ccccc23)cc1 | 11.3 min |
| CC(C)c1ccc(-c2cc(-c3ccccc3)c3c(ccc4ncccc43)n2)cc1 | 20.4 min |
| Cc1ccc2[nH]c(=O)c(C=NC(CO)(CO)CO)c(O)c2c1 | 7.75 min |
| C=C(C)CC1C=CCC(CC(=C)C)N1 (centres undefined) | 9.63 min |
| Cc1cc(=O)cc(C)n1C | 6.83 min |
| CC1(C)CC(NC(=S)NC2CCCCC2)CC(C)(C)N1 | 9.89 min |
| CC(=O)C(C)(C)C(C)=NN=C(N)c1ccc(C)cc1 | 9.26 min |
| c1ccc(CNc2ccccn2)cc1 | 8.6 min |
| C1CCC(OCCN2CCN(CCOC3CCCCC3)CC2)CC1 | 10.9 min |
| Cc1cc(N)c2c(c1)CCC(=O)N2 | 8.69 min |
| Cc1cc(C=O)c(C)n1-c1ccccc1 | 13 min |
| O=Cc1c(-c2ccccc2)[nH]c2ccccc12 | 12.7 min |
| O=c1[nH]c(-c2ccccc2)nc2ccccc12 | 11 min |
| CC(=O)c1c[nH]cc1C | 7.66 min |
| c1ccc(CCNc2ccncn2)nc1 | 7.03 min |
| NC(=O)C(O)c1ccccc1 (centres undefined) | 6.19 min |
| Cc1[nH]c2c(C)ccc(C)c2c1CCN | 9.21 min |
| O=S(=O)(O)CCN1CCN(CCO)CC1 | 1.95 min |

| SMILES | LC retention time |
| --- | --- |
| O=C1NCCO1 | 2.05 min |
| O=C1CCNc2ccc(-c3ccccc3)cc21 | 13.1 min |
| Nc1cccc(N)n1 | 6.11 min |
| Cc1ccc2cc(-c3cccs3)[nH]c2c1 | 16.4 min |
| Cc1ccc(NC(=O)CCN2CCN(C)CC2)cc1 | 8.34 min |
| CC(=O)Nc1ccc(NC(=O)CCC(=O)O)cc1 | 6.9 min |
| CCN(CC)CC | 7.12 min |
| C[N+]1(CC=C2COCO2)CCCCC1 | 7.48 min |
| Cn1c(=O)c2c(-c3ccccc3)n(Cc3ccccc3)cc2n(C)c1=O | 14.3 min |
| COc1cccc(C2CC(=O)Nc3cc4c(cc32)OCO4)c1OC (centres undefined) | 12 min |
| Cc1cc(C)c(NC(=O)c2ccncc2)c(C)c1 | 10.4 min |
| COC(=O)c1ccc(NC(=O)CC(=O)Nc2ccc(C(=O)OC)cc2)cc1 | 12.2 min |
| COc1cccc(OC)c1OCc1nc2ccccc2nc1C | 13.3 min |
| O=C(O)CCCC(=O)Nc1ccccc1 | 8.72 min |
| CC1=NN(Cc2c[nH]c3ccccc23)C(C)(C)C1 | 9.37 min |
| Nc1ccc2c(c1)COC2=O | 7.27 min |
| NC(=S)NC(N)=S | 6.5 min |
| c1ccc(-n2nnnc2-n2ccnc2)cc1 | 9.59 min |
| CCN(CC)c1ccc(C=Nc2ccccc2)c(O)c1 | 11.5 min |
| CCCCCCN1CNC(=S)NC1 | 9.89 min |
| NCCc1csc2c1CCCC2 | 9.41 min |
| C#CC(C)(CC)NC(=O)C(=Cc1ccccc1)NC(=O)c1ccccc1 (centres undefined) | 13.5 min |
| CNCCOc1ccccc1 | 8.08 min |
| Nc1ccc2cc3ccc(N)cc3nc2c1 | 9.09 min |
| CCOC1COCC1N (centres undefined) | 6.48 min |
| O=C(CC1NC(=O)N(C2CCCCC2)C1=O)NCCc1c[nH]c2ccccc12 (centres undefined) | 12.1 min |

| SMILES | LC retention time |
| --- | --- |
| NC1CCNCC1 | 6.22 min |
| C=CCN(C)C | 5.73 min |
| C1CCC(OCCNCCOC2CCCCC2)CC1 | 12 min |
| CCOC(=O)CC1CN(C)CCN1C (centres undefined) | 7.31 min |
| COC(=O)CCCCCN | 7.25 min |
| CCCCc1ccc(NC=CC(=O)c2ccc(C)cc2)cc1 | 21.5 min |
| Nc1cccc(CO)c1 | 6.28 min |
| COc1ccc(N2CC(C(=O)Nc3c(C)cc(C)cc3C)CC2=O)cc1 (centres undefined) | 12.5 min |
| CCC1(c2ccccc2)CCC(=O)NC1=O (centres undefined) | 11.5 min |
| CN(C)Cc1ccccc1 | 7.53 min |
| CCOC(=O)c1ccc2[nH]c3c(c2c1)CCCC3C(=O)OCC (centres undefined) | 16.2 min |
| O=C(Cc1ccccc1)Nc1ccc(-c2nc(-c3ccccc3)c3cc(NC(=O)Cc4ccccc4)ccc3n2)cc1 | 17.8 min |
| O=C(NCCc1c[nH]c2ccccc12)c1c[nH]c2ccccc12 | 11.8 min |
| CCCCCCCCCC(=O)NCCCCC(=O)O | 13.5 min |
| CCNC1(c2cccs2)CCCCC1 | 9.19 min |
| COC(=O)C(N)c1ccccc1 (centres undefined) | 7.62 min |
| NC(=O)CNc1ccc(C(N)=O)cc1 | 5.59 min |
| Cc1cc(C)c2c(O)c(Cc3ccccc3)c(=O)[nH]c2c1 | 12.6 min |
| c1ccc(Cn2ccc3ccccc32)cc1 | 16.8 min |
| Cc1cc(C(=O)O)c(C)n1CCc1c[nH]c2ccccc12 | 12.5 min |
| NCc1nccc2ccccc12 | 7.87 min |
| Cc1[nH]c(-c2ccccc2)c(-c2ccccc2)c1C(=O)OCc1ccccc1 | 18.2 min |
| CN(C)CC(C)(C)CO | 6.43 min |
| Nc1c(S(=O)(=O)O)ccc2c1C(=O)c1ccccc1C2=O | 8.56 min |
| Cc1ccc(-n2ccnc2)cc1 | 8.52 min |
| CCOC(=O)c1ccc2c(c1)C(=O)N(c1cccc3ccccc13)C2=O | 16.2 min |

| SMILES | LC retention time |
| --- | --- |
| CC(C)(C)C(=N)C(C)(C)C | 8.06 min |
| Cn1c2nc(=O)[nH]c(=O)c-2nc2ccccc21 | 8.38 min |
| Nc1cccc2oc3ccccc3c12 | 11.6 min |
| COc1ccc(Cc2c(O)n(-c3ccccc3)c(=O)[nH]c2=O)c(OC)c1 | 11.6 min |
| S=C(Nc1cccnc1)N1CCc2ccccc21 | 9.72 min |
| CC(C)c1cc[nH]c1-c1ccccc1 | 16.3 min |
| CC(=O)CC(C)(C)N | 6.26 min |
| c1cncc(-c2nnco2)c1 | 6.78 min |
| CCCc1ccc(N)cc1 | 9.04 min |
| CC(c1ccccc1)C1Nc2ccccc2C(=O)N1c1ccccc1 (centres undefined) | 15 min |
| Cc1ccc(C2C3=C(CC(C)(C)CC3=O)NC3=C2C(=O)CC(C)(C)C3)cc1 | 13.2 min |
| O=C1CC(N2CCN(C(c3ccccc3)c3ccccc3)CC2)C(=O)N1c1cccc2ccccc12 (centres undefined) | 12.4 min |
| CCOc1ccc(N2C(=O)CC(N(Cc3ccc4c(c3)OCO4)C(C)=O)C2=O)cc1 (centres undefined) | 12.5 min |
| C=Cn1ccnc1 | 6.3 min |
| Nc1cccc2c1CCC2 | 8.43 min |
| CN1CCCCC1=O | 7.29 min |
| CCN1C(=O)C2C(C)NC3(C(=O)Nc4ccccc43)C2C1=O (centres undefined) | 8.61 min |
| CC1=CC(=O)C(C)(C)NC1 | 6.78 min |
| O=C1CCCN1c1ccc(O)cc1 | 7.71 min |
| CC(N)CN(C)C (centres undefined) | 6.58 min |
| O=C1c2ccccc2CN1CCNC(=S)NC1CCCCC1 | 12 min |
| CCOC(=O)C(Cc1ccc(NC(=O)c2ccccc2)cc1)N1C(=O)c2ccccc2C1=O (centres undefined) | 15.2 min |
| CC1(C)Cc2ccccc2C(C2=C(O)CCCC2=O)=N1 | 10.1 min |
| CNC1C(OC2C(OC3C(O)C(O)C(N=C(N)N)C(O)C3N=C(N)N)OC(C)C2(O)C=O)OC(CO)C(O)C1O (centres undefined) | 7.82 min |
| Nc1ccc2c(c1)SSc1cc(N)ccc1-2 | 10.3 min |
